Like-named read-outs stand apart in the source and are kept apart here.
Test: Reporter assay (No. 1), cell number reporter gene (sea pansy luciferase, pRL-TK), clone of Example 2
Type: cell-based
Details: mouse, hepa1c1c7 cells, about 40 hours, ratio to 0 pg/ml, read-out: Amount of luminescence by sea pansy luciferase (from pRL-TK) Ratio
Description: For the measured values of the amount of expression of the cell number reporter gene, a ratio is determined of the measured value in the test substance added group to the measured value in the only solvent added group (control group). When the ratio is, for example, in the range of 0.8 to 1.2, the measured value of the amount of expression of the ligand responsive reporter gene in the test substance added group is selected for evaluating the agonist or antagonist activity of the test substance against the ability of a ligand responsive transcriptional regulatory factor to promote transcription. When the ratio takes a small value such as smaller than 0.8, for example, it is possible that the test substance has cytotoxicity. In contrast, when the ratio takes a large value such as greater than 1.2, for example, it is possible that the test substance has activity against the transcriptional regulatory system of a gene without mediation of a ligand responsive transcriptional regulatory factor. However, the range of this ratio suitable for selecting the measured value of the amount of expression of the […] reporter gene may vary depending on certain properties of the present cells used and the conditions of measurement, and it is not limited to the above examples of numerical values.
Separately, plasmid pGV-Ya-XREx5 (ligand responsive reporter gene containing plasmid) constructed in Example 1 was digested with Bam HI. Further, plasmid pRL-TK (cell number reporter gene containing plasmid; marketed by Toyo Ink) containing the sea pansy luciferase gene used as the cell number reporter gene was digested with Bam HI, and neomycin resistance (aminoglycoside phosphotransferase) gene containing plasmid pRc/RSV (available from INVITROGEN) was digested with Hind III. These three digested plasmids, i.e., Bam HI digested pGV-Ya-XREx5 (2.8 µg), Bam HI digested pRL-TK (2.8 µg), and Hind III digested pRc/RSV (0.5 µg), were then mixed with 300 µl of αMEM medium (mixture A), while 36 µl of lipofectin (available from GIBCO-BRL) was mixed with 300 µl of αMEM medium (mixture B). After being left at room temperature for 30 minutes, mixtures A and B were combined together and left at room temperature for 10 minutes. The Hepa1clc7 cells cultured overnight as described above were then washed once with αMEM medium, to which there was added a solution prepared by adding and mixing additional 5.4 ml of αMEM medium to the above mixture (A + B). Culturing of the resulting mixture was carried out for 5 hours. The medium was then replaced with 10% serum containing αMEM medium, followed by further culturing overnight. Subsequently, the cells were scratched from the petri dishes and collected, and the collected cells were suspended in 10% serum containing αMEM medium to have the total volume of 100 ml. The resulting cell suspension was plated on 96 well plates at a ratio of 100 µl/well. After these plates were cultured overnight, a medium prepared by dissolving geneticin (hereinafter referred to as "G418") in 10% serum containing αMEM medium to have a concentration of 1.6 mg/ml was added at a ratio of 100 µl/well (G418 final concentration 800 µg/ml). Culturing was further continued for 3 weeks, during which the medium was replaced with 10% serum containing αMEM medium containing 800 µg/ml G418 at a rate of once per week. The volume of the medium was set at 200 µl/well. After said 3 weeks, cells were scratched from the wells in which colony formation had been observed, and collected (for 192 wells), and the collected cells were divided into three and independently plated on different plates, followed by continuous culturing for 4 days. To the first plate, only DMSO was added (solvent control), and to the second plate, 3-methylcholanthrene (hereinafter referred to as "3-MC") dissolved in DMSO was added so that the final concentration of 3-MC in the second plate came to 10 µM per well. The first and second plates were then cultured overnight. […]

Clc1cc2c(cc1Cl)Oc1cc(Cl)c(Cl)cc1O2 [TCDD, 2,3,7,8-tetrachlorodibenzo-p-dioxin]
viability at 40 h (final conc. 0.02 pg/ml): 100%
viability at 40 h (final conc. 0.2 pg/ml): 90%
viability at 40 h (final conc. 2 pg/ml): 90%
viability at 40 h (final conc. 20 pg/ml): 80%
viability at 40 h (final conc. 200 pg/ml): 70%
viability at 40 h (final conc. 2000 pg/ml): 60%
viability at 40 h (final conc. 20000 pg/ml): 60%

From patent publication EP1148124A1 (priority 1999, dated 2000)
